Experimental data as given in patent US10723764B2, “Anti-microbial peptides and methods of use thereof” (priority 2011, dated 2020).
Converted amounts (≈) assume the structure as drawn. Where a SMILES comes first, the peptide text is derived from it. [ ]: non-standard residue; d: D form. Bip = N[C@@H](Cc1ccc(-c2ccccc2)cc1)C(=O)O

Columns and labels:
A. baumannii B2367-12 = format: cell-based, Acinetobacter baumanii
Procedure: (§1) The antibacterial activities of the peptides were determined using the standard broth microdilution method (Mishra et al. (2012) J. Am. Chem. Soc., 134:12426-12429; Wang et al. (2005) Biol. Chem., 280:5803-5811). Briefly, the bacterial culture was treated with a series of peptide solutions, each with two-fold dilution. After overnight incubation at 37° C., the microplate was read on a ChroMate® 4300 Microplate Reader at 630 nm (GMI, Ramsey, Minn.).

Escherichia coli K12 = conditions: Table 8
[1] = system: methicillin-resistant Staphylococcus aureus USA300 LAC
Procedure: This was done by modifying the standard microdilution antimicrobial assays (Wang, G. (2008) J. Biol. Chem., 283:32637-32643). Specifically, the bacterial wells with a high peptide concentration (e.g. 100 μM) are duplicated (e.g., two for antimicrobial assays and two for protease stability assays). As an illustration, chymotrypsin was applied to the duplicated wells at a peptide:protease molar ratio of 25:1.

ESKAPE pathogens = format: cell-based
Procedure: as §1
A rational design was conducted on the basis of the 3D structure of GF-17d3. […] The noncoherent packing of the GF-17d3 side chains caused a hydrophobic defect in the structure (FIGS. 8C and 8D, arrow), leading to reduced hydrophobicity. Accordingly, it was hypothesized that the antimicrobial activity of this peptide 17F2 (sequence GX1KRLVQRLKDX2LRNLV (SEQ ID NO: 58), Table 9) could be enhanced by filling in the hydrophobic cavity (FIG. 8D, arrow) with a larger hydrophobic side chain. The antimicrobial activities of these peptide analogues were evaluated using the standard microdilution assays (Mishra et al. (2012) J. Am. Chem. Soc., 134:12426-12429), and the minimal inhibitory concentrations (MIC) against a panel of the ESKAPE pathogens are provided in Table 10. […] To compare the two sites, these two substitutions at positions X1 and X2 were swapped to obtain 17Naph-mF. […] In addition, biphenylalanines were incorporated at position X1 alone or at both X1 and X2 of the 17F2 template. […] The killing abilities of these peptides are essentially proportional to their MIC values as well as retention times (a measure of hydrophobicity) on a reverse-phase HPLC column (Mishra et al. (2012) J. Am. Chem. Soc., 134:12426-12429).

S. aureus V8 protease = S. aureus V8 protease (Staphylococcus aureus, UniProt P0C1U8); format: in vitro ADME; conditions: peptide/protease 40:1, PBS pH 8, 37° C.
Procedure: (§2) FIG. 10 provides a stability comparison of synthetic 17BIPHE2 with GF-17 in the presence of bovine chymotrypsin, porcine trypsin, S. aureus protease V8, and fungal protease K. Two samples were analyzed in this gel for each protease: 0 and 6 hours for GF-17 and 0 and 24 hours for 17BIPHE2.
(§3) Peptide stability was evaluated based on a published protocol (Mishra et al. (2012) J. Am. Chem. Soc., 134:12426-12429) with one modification. Aliquots (10 μL) of the reaction solutions (peptide/protease molar ratio, 40:1) in 10 mM PBS buffer (pH 8) at 37° C. were taken at 0, 6, and 24 hours and immediately mixed with 10 μL of 2×SDS loading buffer followed by boiling for 5 minutes to stop the reaction. Samples were analyzed using 5% stacking/18% resolving tricine gel.

E. faecium ATCC51559 = format: cell-based, Enterococcus faecium; conditions: ATCC51559
Procedure: as §1

chymotrypsin = chymotrypsin (Bos taurus, UniProt P00766); test: Peptide stability to chymotrypsin by SDS-PAGE; format: in vitro ADME, bovine; conditions: during 4 hours
Procedure: A solution (100 μl) of the peptide and 12.5 μM chymotrypsin (peptide/protein molar ratio, 40:1) in 10 mM PBS buffer (pH 8) was incubated at 37° C. Aliquots (10 μl) of the reaction solutions were taken at 0, 2, 4, and 22 hours and immediately mixed with 20 μl of 2×SDS loading buffer to stop the reaction. For the gel analysis, 10 μl of each sample was loaded to the well of a 5% stacking/18% resolving tricine gel. The samples in the lanes are: 1, protein marker; 2, temporin-PTa L-form at 0 hour; 3, 2 hours; 4, 4 hours; 5, 22 hours; 6, temporin-PTa D-form at 0 hour; 7, 2 hours; 8, 4 hours; 9, 22 hours. In the gel, the bands for the peptide and chymotrypsin were indicated with large and small arrows, respectively. Note that the peptide bands were not detected in lanes 3-5 due to protease cleavage but remained essentially constant in lanes 7-9.
Peptide stability was evaluated using standard SDS-PAGE (described in FIG. 5).
as §3

fungal protease K = fungal protease K (Parengyodontium album, UniProt P06873); test: Peptide stability to fungal protease K by SDS-PAGE; format: in vitro ADME; conditions: peptide/protease 40:1, PBS pH 8, 37° C.
Procedure: as §2, §3

[2] = system: Pseudomonas aeruginosa PAO1; format: cell-based
Procedure: The bacterial strains used in the study are Bacillus subtilis 168, methicillin-resistant Staphylococcus aureus USA300 LAC (Gram-positive), Escherichia coli K12, and Pseudomonas aeruginosa PAO1 (Gram negative). The antibacterial activities of the peptides were determined using the standard broth microdilution method (Wang et al. (2005) J. Biol. Chem., 280:5803-5811). In brief, the bacterial culture (90 μL) was treated with a series of peptide solutions (10 μL), each with two-fold dilution. After overnight incubation at 37° C., the microplate was read on a ChroMate® 4300 Microplate Reader at 630 nm (GMI, Ramsey, Minn.).
For the initial screen, antimicrobial activities of these peptides against S. aureus and E. coli were evaluated using the standard broth microdilution protocol (Wang, G. (2008) J. Biol. Chem., 283:32637-43). […] Subsequently, the in vitro activity of these six peptides was evaluated against Bacillus subtilis and Pseudomonas aeruginosa (Table 6). […] While maculatin 1.3 is active against two Gram-positive but not two Gram-negative bacterial strains, DASamP1 is species-specific since it active only against S. aureus. The finding that ascaphin-8, […], and piscidin 1 are wide-spectrum AMPs agrees with the literature (Apponyi et al. (2004) Peptides 25:1035-1054; Conlon et al. (2004) Biochem. Biophys. Res. Commun., 320:170-175; Silphaduang et al. (2001) Nature 414:268-269; Souza et al. (2005) J. Immunol., 186:6585-6596). For lycotoxin I, it was previously found to active against Gram-negative E. coli and yeast (Yan et al. (1998) J. Biol. Chem., 273:2059-2066).
as §1

E. cloacae B2366-12 = format: cell-based; conditions: B2366-12
Procedure: as §1

S. aureus V8 protease, sequence (P0C1U8 69-336): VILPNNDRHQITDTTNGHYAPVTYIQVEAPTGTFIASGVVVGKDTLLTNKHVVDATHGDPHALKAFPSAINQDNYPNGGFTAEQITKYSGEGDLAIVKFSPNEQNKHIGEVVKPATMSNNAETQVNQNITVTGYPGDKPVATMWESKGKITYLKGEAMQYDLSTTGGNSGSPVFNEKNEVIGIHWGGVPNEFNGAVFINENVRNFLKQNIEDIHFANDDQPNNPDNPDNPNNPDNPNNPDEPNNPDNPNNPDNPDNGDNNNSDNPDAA
fungal protease K, sequence (P06873 106-384): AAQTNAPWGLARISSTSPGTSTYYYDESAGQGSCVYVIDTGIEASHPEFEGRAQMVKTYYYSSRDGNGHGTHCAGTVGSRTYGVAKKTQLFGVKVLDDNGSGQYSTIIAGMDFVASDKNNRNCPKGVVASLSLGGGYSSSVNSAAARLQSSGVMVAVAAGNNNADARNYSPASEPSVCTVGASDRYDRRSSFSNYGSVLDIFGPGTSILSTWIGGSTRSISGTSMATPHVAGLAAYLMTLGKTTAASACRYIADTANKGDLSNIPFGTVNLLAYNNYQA

## CC(C)C[C@H](NC(=O)[C@H](CC(N)=O)NC(=O)[C@H](CCCNC(=N)N)NC(=O)[C@@H](CC(C)C)NC(=O)[C@H](Cc1ccc(-c2ccccc2)cc1)NC(=O)[C@H](CC(=O)O)NC(=O)[C@H](CCCCN)NC(=O)[C@@H](CC(C)C)NC(=O)[C@H](CCCNC(=N)N)NC(=O)[C@H](CCC(N)=O)NC(=O)[C@@H](NC(=O)[C@@H](CC(C)C)NC(=O)[C@H](CCCNC(=N)N)NC(=O)[C@H](CCCCN)NC(=O)[C@H](Cc1ccc(-c2ccccc2)cc1)NC(=O)CN)C(C)C)C(=O)N[C@H](C(N)=O)C(C)C [D128A, GX1KRLVQRLKDX2LRNLV-amide] (H-G[Bip]KR[dL]VQR[dL]KD[Bip][dL]RNLV-NH2)
A. baumannii B2367-12
  MIC (μM) AB: 3.1 µM (≈ 6.99 µg/mL)
Escherichia coli K12
  E. coli K12 MIC: 2.5 µM
Human erythrocytes; Table 8
  HL50 (μM), peptide concentration at which 50% human red blood cells were lysed: 150 µM
Human erythrocytes; Table 10
  HL50 (μM), peptide concentration that causes 50% lysis of human erythrocytes: 225 µM
[1]; S. aureus USA300 LAC, Table 10
  MIC (μM) SA: 3.1 µM (≈ 6.99 µg/mL)
[1]; Table 8
  S. aureus USA 300 MIC: 5 µM
ESKAPE pathogens
  MIC against all of the ESKAPE pathogens: 3.1 to 6.2 µM
S. aureus V8 protease
  time stable in the presence of S. aureus V8 protease: at least 24 hours
E. faecium ATCC51559
  MIC (μM) EF: 3.1 µM (≈ 6.99 µg/mL)
chymotrypsin
  level of intact peptide in the presence of chymotrypsin: remained constant
Fungal protease K
  time stable in the presence of fungal protease K: at least 24 hours
[2]
  MIC (μM) PA: 6.2 µM (≈ 14 µg/mL)
E. cloacae B2366-12
  MIC (μM) EC: 3.1 µM (≈ 6.99 µg/mL)
